Laboratory results from ChEMBL document CHEMBL1687873, “Virtual screening studies on HIV-1 reverse transcriptase inhibitors to design potent leads” (Eur J Med Chem, 2011).
pIC50: −log10 of the molar value.

Molecular target: Human immunodeficiency virus type 1 reverse transcriptase (Human immunodeficiency virus 1, UniProt Q72547)
Assay: Inhibition of Human immunodeficiency virus 1 reverse transcriptase

| pIC50 | Compound |
| --- | --- |
| 8.27 | CC1=C(Sc2cccc([N+](=O)[O-])c2)C(COCCO)C(=O)NC1=O (centres undefined) |
| 7.62 | CC1=C(Sc2cc(C)cc(C)c2)C(COCCO)C(=O)NC1=O (centres undefined) |
| 6.62 | CCC1=C(Sc2ccccc2)C(COC2CCCCC2)C(=S)NC1=O (centres undefined) |
| 7.51 | CC(C)C1=C(Sc2ccccc2)C(COCCO)C(=O)NC1=O (centres undefined) |
| 8.66 | CC1=C(Sc2cccc(Cl)c2)C(COCCO)C(=O)NC1=O (centres undefined) |
| 9.28 | CC1=C(Sc2cccc(C(F)(F)F)c2)C(COCCO)C(=O)NC1=O (centres undefined) |
| 6.22 | CCOCC1C(=O)NC(=O)C(CC)=C1Sc1cc(Cl)cc(Cl)c1 (centres undefined) |
| 8.77 | CC1=C(Sc2cccc(F)c2)C(COCCO)C(=O)NC1=O (centres undefined) |
| 7.57 | CC1=C(Sc2cc(Cl)cc(Cl)c2)C(COCCO)C(=O)NC1=O (centres undefined) |
| 7.10 | CCC1=C(Sc2cc(C)cc(C)c2)C(COCCO)C(=O)NC1=O (centres undefined) |
| 6.95 | CC1=C(Sc2ccccc2)C(COCc2ccccc2)C(=O)NC1=O (centres undefined) |
| 6.86 | CCOCC1C(=S)NC(=O)C(CC)=C1Sc1ccccc1 (centres undefined) |
| 6.52 | CCOCC1C(=S)NC(=O)C(CC)=C1Sc1cc(C)cc(C)c1 (centres undefined) |
| 7.00 | CCOCC1C(=O)NC(=O)C(CC)=C1Sc1ccccc1 (centres undefined) |
| 6.39 | CCC1=C(Sc2ccccc2)C(COCc2ccc(Cl)cc2)C(=S)NC1=O (centres undefined) |
| 6.37 | CCC1=C(Sc2ccccc2)C(COCc2ccc(C)cc2)C(=S)NC1=O (centres undefined) |
| 6.43 | CCC1=C(Sc2ccccc2)C(COCC2CCCCC2)C(=S)NC1=O (centres undefined) |
| 6.33 | CCC1=C(Sc2ccccc2)C(COCCc2ccccc2)C(=S)NC1=O (centres undefined) |
| 7.70 | COc1cccc(SC2=C(C)C(=O)NC(=O)C2COCCO)c1 (centres undefined) |
| 8.16 | CC1=C(Sc2cccc(O)c2)C(COCCO)C(=O)NC1=O (centres undefined) |
| 8.51 | CC1=C(Sc2cccc(Br)c2)C(COCCO)C(=O)NC1=O (centres undefined) |
| 6.68 | CCOCC1C(=O)NC(=O)C(CC)=C1Sc1cc(C)cc(C)c1 (centres undefined) |
| 7.27 | Cc1cc(C)cc(SC2=C(C(C)C)C(=O)NC(=O)C2COCCO)c1 (centres undefined) |
| 8.40 | CC1=C(Sc2cccc(I)c2)C(COCCO)C(=O)NC1=O (centres undefined) |
